According to PMC6874057, “Synthesis of Chalcone Derivatives: Inducing Apoptosis of HepG2 Cells via Regulating Reactive Oxygen Species and Mitochondrial Pathway” (Frontiers in Pharmacology, 2019):

Key:
Format in all cases: cell-based, human
A549 = test: MTT cell viability assay, A549; details: Homo sapiens, A549, 48 h, mean ± SE
Experimental: (§1) HeLa, A549, HepG2, HL-60, and WI-38 cell lines were incubated in DMEM solution containing 10% FBS for 48 h. The incubated tumor cells were seeded into 96-well plates (5 × 10^3 cells/well) to make them attach for 12 h. Afterwards, the cells were processed with the various concentrations of the synthetic compounds and 5-FU for 48 h. After removing the cell culture supernatant, 10 µl MTT (5 mg/ml) solution was dripped into the cells to generate a formazan product, which were dissolved by dimethyl sulfoxide (DMSO) 4 h later. Multifunction microplate reader (Bio-Rad Laboratories, Shanghai, China) was adopted to measure the absorbance at the wave length of 490 nm. The IC50 (the lowest drug concentration causing 50% of the tumor cells inhibition) was then calculated using GraphPad Prism Software (version 5.02) and used to indicate the cytotoxic effect of the target compounds on the selected tumor cells.

HepG2 = test: MTT cell viability assay, HepG2; details: Homo sapiens, HepG2, 48 h, mean ± SE
Experimental: as §1

HepG2 cells [1] = test: DAPI staining, morphology of apoptotic cells; details: various concentrations, 48 h; in words
Experimental: Firstly, HepG2 cells (3 × 10^5 cells/well) were seeded into six-well plates and kept to attach overnight. Then, the cells were incubated with a14 at different concentrations (0, 30, 50, and 70 µM) for 48 h, washed by ice-cold PBS solution and fixed with 4% paraformaldehyde for 10 min at room temperature. The cells was processed by DAPI (10 µg/ml) for 15 min in the dark, and the residual DAPI was rinsed two more times by ice-cold PBS. Then, the cells were transferred on a glass slide, fixed with a coverslip and placed under a fluorescence microscope (Motic China Group Co., Ltd., Shenzhen, China) to be observed and photographed at an excitation wavelength of 480/30× nm and the emission wavelength of 515 nm. Condensation of chromatin and fragmentation of nuclei could be applied to determine the apoptotic cells.

HepG2 cells [2] = test: Annexin V-Alexa Fluor 647/PI staining, flow cytometry; details: 48 h
Experimental: HepG2 cells were seeded into six-well plates (3 × 10^5/well) overnight to allow the cells to grow adherently and then incubated with a14 at the concentrations of 0, 30, 40, 50, 60 or 70 µM for 48 h. In order to assess apoptosis, the double Annexin V-Alexa Fluor 647/PI (Beijing Solarbio Science & Technology Co., Ltd) immunofluorescence labeling method was used. After the cells were collected by centrifugation, 5 µl of Annexin V-Alexa Fluor 647 and 10 µl of PI solution (20 ug/ml) were added to each well. The cells were mixed and incubated at room temperature for 15 min in the dark and then mixed with 400 µl of PBS. Then, a Beckman Coulter flow cytometer (Beckman Coulter, Inc. California) was used to monitor the fluorescence. Ten thousand events were collected for each sample, and the data were analyzed via Flow Jo-V10 software.

[3] = test system: mitochondrial membrane potential in HepG2 cells; test: Mitochondrial membrane potential by JC-1 probe; details: a14 50 µM
Experimental: JC-1 probe was used to detect changes in MMP. Firstly, HepG2 cells (3 × 10^5 cells/well) were seeded into a six-well plate overnight for adherence, and then treated with various concentrations of a14 for 48 h. Next, the cells were treated with JC-1 (2.5 µg/ml) at 37°C for 10 min in the dark and rinsed three times with PBS. Then, the six-well plate was placed under the fluorescence microscope (excitation 480/30× nm, emission 515 nm) to observe the fluorescence color and intensity of JC-1 in the cells. In addition, HepG2 cells (3 × 10^5 cells/well) were inoculated on another six-well plate overnight to allow adherence, and then treated with a14 (50 µM) for 0, 12, 24, 36, and 48 h, adding CCCP (without a14) for 20 min to completely lose the mitochondrial membrane potential. Cells were then incubated with JC-1 (2.5 µg/ml) at 37°C in the dark for 10 min and rinsed with PBS for three times. Fluorescence intensity of residual JC-1 in cells was measured by Beckman Coulter flow cytometer (FITC, 525/40BP). The data obtained was analyzed by CytExpert 2.0 software imbedded in the flow cytometry.

Bax in HepG2 cells = test: Western blot, Bax; details: different concentrations, 48 h, dose-dependent; in words
Experimental: (§2) HepG2 cells (3 × 10^5 cells/well) were seeded into a six-well plate overnight for adherence, and then treated with a14 (0, 30, 40, 50, 60, and 70 µM) for 48 h. After the cells were collected by centrifugation, they were lysed with the radio immunoprecipitation assay (RIPA) buffer (high) containing 50 mM Tris (pH = 7.4), 150 mM NaCl, 1% TritonX-100, 1% sodium deoxycholate, 0.1% sodium dodecyl sulfate (SDS), 2 mM sodium pyrophosphate, 25 mM β-glycerophosphate, 1 mM ethylenediaminetetraacetic acid (EDTA), 1 mM Na3VO4, and 0.5 ug/ml leupeptin (Beijing Solarbio Science & Technology Co., Ltd.).The extract was then centrifuged at 12,000 rpm for 30 min and the total protein concentration was quantified using the BCA kit (Beijing Solarbio Science & Technology Co., Ltd.). The protein extracts were mixed with the SDS-PAGE protein loading buffer (Beijing Solarbio Science & Technology Co., Ltd.) and then boiled in 100°C water bath for 10 min. The gel was gelatinized using an SDS Gel Kit (Beijing Solarbio Science & Technology Co., Ltd.) and protein extracts were separated by protein SDS-polyacrylamide gel electrophoresis and transferred to Immobilon-NC Membrane (Beijing Solarbio Science & Technology Co., Ltd.). […]

PARP in HepG2 cells = test: Western blot, PARP and cleaved PARP; details: 48 h, compared to the control group; in words
Experimental: as §2

## COc1cc(/C=C/C(=O)c2ccc(O)c(C(N)=O)c2)cc(OC)c1OC [a14]
A549
  IC50: 36.7 ± 1.08 µM
HepG2
  IC50: 38.3 ± 0.59 µM
HepG2 cells [1]
  morphological changes of the nucleus (DAPI): a large number of nuclear condensation and nuclear fragmentation
HepG2 cells [2]; a14 30 µM
  Early apoptosis: 3.10%
  Late apoptosis: 9.45%
HepG2 cells [2]; a14 50 µM
  increase of percentage of early apoptosis compared with the untreated group: 28.35%
  increase of percentage of late apoptosis compared with the untreated group: 13.51%
HepG2 cells [2]; a14 70 µM
  Early apoptosis: 28.62%
  Late apoptosis: 32.89%
[3]; 48 h (untreated 50.08%)
  JC-1 (FITC), right of the gate line (green fluorescence): 91.94%
[3]; 48 h, in words
  JC-1 fluorescence colour under the fluorescence microscope: almost all cells had shown green fluorescence
Bax in HepG2 cells
  expression of pro-apoptotic proteins (Bax): up-regulated
PARP in HepG2 cells
  expression level of PARP: decrease
  level of cleaved PARP proteins: increase
